From publication PMC5513037, “Examining the influence of specificity ligands and ATP-competitive ligands on the overall effectiveness of bivalent kinase inhibitors” (Proteome Science, 2017) come the findings set out here.

Some results are limits rather than exact numbers.

For one experiment, the target named is BRDT (Homo sapiens, UniProt Q58F21). In words: biochemical.
A further experiment has as its target T1, CDK9 (Homo sapiens, UniProt P50750).
T1 construct: endogenous in cells; host or cells: K562
In words: KAM-matrix competition in K562 lysate. Format: binding. The protocol:
(§1) For synthesis of KAM-derivatized resin, packed NHS-activated sepharose 4 fast flow resin (volume = 2 mL; GE Healthcare) was washed with anhydrous DMSO (3 × 10 mL). To the washed NHS-activated sepharose resin was added 0.5 mM KAM in anhydrous DMSO (8 mL; 2 μmol compound/mL of resin), followed by the addition of triethylamine (30 μL). The reaction mixture was vortexed to mix and pelleted by centrifugation (100 x g, 2 min). An aliquot of the supernatant (50 μL) was saved for LC/MS analysis. The reaction mixture was allowed incubate overnight at room temp with end-over-end rotating agitation. On the following day, the reaction mixture was pelleted by centrifugation (100 x g, 2 min). An aliquot of the supernatant (50 μL) was saved for LC/MS analysis. […] 2-(2-Aminoethoxy)ethanol (100 μL; Sigma-Aldrich) was added to the reaction mixture, vortexed, and incubate overnight at room temp with end-over-end agitation. The KAM-derivatized resin was then washed with anhydrous DMSO (3 × 10 mL) and 95% EtOH (3 × 10 mL).
(§2) Data were visualized for further analysis using Spotfire DXP.

In another experiment the target is T2, AAK1 (Homo sapiens, UniProt Q2M2I8).
T2 construct: endogenous in cells; host or cells: K562
Briefly: KAM-matrix competition in K562 lysate. Format: binding. The protocol:
as §1, §2

Another experiment concerns the target T3, GSK3A (Homo sapiens, UniProt P49840).
T3 construct: endogenous in cells; host or cells: K562
In words: KAM-matrix competition in K562 lysate. Type of experiment: binding. The protocol:
as §1, §2

The target of the next experiment is T4, GSK3B (Homo sapiens, UniProt P49841).
T4 construct: endogenous in cells; host or cells: K562
Briefly: KAM-matrix competition in K562 lysate. Type of experiment: binding. The procedure: as §1, §2

Another experiment has as its target T5, NEK9 (Homo sapiens, UniProt Q8TD19).
T5 construct: endogenous in cells; host or cells: K562
T5 sequence (Q8TD19 1-979): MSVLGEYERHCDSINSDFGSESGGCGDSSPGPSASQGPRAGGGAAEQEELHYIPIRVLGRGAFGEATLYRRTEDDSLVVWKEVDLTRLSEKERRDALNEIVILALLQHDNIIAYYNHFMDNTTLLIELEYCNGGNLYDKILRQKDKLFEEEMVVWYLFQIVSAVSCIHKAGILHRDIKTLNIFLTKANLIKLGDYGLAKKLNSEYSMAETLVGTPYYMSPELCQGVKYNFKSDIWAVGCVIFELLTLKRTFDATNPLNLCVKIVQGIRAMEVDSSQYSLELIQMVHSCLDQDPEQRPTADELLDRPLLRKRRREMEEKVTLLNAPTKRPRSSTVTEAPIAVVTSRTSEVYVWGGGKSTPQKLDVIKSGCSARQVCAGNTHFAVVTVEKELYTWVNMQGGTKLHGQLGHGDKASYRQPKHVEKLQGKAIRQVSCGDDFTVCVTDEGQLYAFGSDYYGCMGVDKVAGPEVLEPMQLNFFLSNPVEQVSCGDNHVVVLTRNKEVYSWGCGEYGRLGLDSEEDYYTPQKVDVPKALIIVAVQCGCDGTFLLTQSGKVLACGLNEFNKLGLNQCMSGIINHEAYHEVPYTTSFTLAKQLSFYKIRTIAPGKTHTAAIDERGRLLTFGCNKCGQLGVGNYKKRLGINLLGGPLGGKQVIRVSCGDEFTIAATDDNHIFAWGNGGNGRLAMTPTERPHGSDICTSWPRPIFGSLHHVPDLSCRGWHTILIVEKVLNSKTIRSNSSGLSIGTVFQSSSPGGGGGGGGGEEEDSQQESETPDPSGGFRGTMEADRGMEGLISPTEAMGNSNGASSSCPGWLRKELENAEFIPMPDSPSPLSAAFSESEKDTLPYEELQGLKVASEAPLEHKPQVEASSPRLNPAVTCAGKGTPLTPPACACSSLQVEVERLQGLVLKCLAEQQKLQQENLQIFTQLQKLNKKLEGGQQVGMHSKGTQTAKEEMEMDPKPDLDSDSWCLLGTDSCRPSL
In words: KAM-matrix competition in K562 lysate. Type of experiment: binding. The procedure:
as §1, §2

A further experiment relates to ABL1. Briefly: KAM-matrix competition in K562 lysate. Type of experiment: binding, human. The procedure:
as §1, §2

T2 sequence (Q2M2I8 whole entry): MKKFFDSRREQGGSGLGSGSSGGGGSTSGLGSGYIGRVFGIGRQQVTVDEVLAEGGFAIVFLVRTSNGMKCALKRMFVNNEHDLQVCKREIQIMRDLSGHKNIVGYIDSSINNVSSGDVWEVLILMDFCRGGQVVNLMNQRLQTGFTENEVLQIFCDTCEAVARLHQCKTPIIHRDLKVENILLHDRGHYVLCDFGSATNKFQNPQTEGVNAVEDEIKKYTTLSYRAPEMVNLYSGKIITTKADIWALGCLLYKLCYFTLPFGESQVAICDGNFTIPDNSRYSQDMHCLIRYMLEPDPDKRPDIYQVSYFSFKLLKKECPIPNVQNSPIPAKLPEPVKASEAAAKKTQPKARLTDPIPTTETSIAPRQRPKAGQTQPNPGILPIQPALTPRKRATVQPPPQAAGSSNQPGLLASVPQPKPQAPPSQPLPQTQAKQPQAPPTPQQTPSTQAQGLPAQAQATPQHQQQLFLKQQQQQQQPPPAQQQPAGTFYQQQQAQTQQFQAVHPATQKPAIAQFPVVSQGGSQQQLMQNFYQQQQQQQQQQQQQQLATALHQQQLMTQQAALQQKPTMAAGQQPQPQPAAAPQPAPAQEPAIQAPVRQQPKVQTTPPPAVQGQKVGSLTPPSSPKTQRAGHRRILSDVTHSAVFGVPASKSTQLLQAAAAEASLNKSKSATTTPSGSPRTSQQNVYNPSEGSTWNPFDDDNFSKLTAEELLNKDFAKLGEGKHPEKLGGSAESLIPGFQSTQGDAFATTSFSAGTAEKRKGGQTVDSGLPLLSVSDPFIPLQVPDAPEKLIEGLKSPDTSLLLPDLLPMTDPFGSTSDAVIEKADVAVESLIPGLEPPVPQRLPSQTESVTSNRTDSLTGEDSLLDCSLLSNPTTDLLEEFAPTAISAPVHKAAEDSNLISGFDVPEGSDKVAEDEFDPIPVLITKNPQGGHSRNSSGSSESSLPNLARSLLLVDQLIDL
T3 sequence (P49840 whole entry): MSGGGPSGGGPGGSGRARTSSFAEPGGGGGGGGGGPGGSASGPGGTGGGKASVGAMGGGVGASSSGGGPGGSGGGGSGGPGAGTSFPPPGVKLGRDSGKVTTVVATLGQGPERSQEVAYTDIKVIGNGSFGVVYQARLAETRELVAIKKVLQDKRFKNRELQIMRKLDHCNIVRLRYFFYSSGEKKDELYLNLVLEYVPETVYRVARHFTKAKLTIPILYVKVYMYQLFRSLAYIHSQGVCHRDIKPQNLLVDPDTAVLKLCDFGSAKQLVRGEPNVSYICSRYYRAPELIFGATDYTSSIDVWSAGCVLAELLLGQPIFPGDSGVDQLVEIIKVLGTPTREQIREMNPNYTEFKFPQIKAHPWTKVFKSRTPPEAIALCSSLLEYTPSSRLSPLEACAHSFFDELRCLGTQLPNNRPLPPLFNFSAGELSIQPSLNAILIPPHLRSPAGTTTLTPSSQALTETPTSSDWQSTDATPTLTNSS
T4 sequence (P49841 whole entry): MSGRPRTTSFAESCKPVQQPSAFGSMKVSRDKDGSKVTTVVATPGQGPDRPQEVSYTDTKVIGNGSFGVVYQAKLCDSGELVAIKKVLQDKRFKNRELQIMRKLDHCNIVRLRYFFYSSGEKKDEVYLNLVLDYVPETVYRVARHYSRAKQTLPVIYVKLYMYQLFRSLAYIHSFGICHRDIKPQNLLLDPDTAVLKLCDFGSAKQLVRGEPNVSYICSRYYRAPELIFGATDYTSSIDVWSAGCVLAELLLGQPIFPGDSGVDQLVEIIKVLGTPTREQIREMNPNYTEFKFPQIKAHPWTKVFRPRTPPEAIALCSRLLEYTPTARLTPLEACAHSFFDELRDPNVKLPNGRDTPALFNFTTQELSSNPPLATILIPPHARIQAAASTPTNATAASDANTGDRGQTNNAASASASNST
T1 sequence (P50750 whole entry): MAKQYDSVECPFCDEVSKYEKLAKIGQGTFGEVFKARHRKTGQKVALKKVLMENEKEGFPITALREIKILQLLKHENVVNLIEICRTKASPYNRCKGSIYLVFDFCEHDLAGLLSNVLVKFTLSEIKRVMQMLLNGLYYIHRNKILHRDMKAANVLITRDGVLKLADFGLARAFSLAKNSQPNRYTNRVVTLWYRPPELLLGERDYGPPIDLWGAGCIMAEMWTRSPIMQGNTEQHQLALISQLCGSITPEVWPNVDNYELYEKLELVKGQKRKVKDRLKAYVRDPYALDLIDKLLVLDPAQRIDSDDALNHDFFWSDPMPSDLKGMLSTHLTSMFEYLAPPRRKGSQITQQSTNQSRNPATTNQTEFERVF
T1 sequence (O60563 whole entry partner): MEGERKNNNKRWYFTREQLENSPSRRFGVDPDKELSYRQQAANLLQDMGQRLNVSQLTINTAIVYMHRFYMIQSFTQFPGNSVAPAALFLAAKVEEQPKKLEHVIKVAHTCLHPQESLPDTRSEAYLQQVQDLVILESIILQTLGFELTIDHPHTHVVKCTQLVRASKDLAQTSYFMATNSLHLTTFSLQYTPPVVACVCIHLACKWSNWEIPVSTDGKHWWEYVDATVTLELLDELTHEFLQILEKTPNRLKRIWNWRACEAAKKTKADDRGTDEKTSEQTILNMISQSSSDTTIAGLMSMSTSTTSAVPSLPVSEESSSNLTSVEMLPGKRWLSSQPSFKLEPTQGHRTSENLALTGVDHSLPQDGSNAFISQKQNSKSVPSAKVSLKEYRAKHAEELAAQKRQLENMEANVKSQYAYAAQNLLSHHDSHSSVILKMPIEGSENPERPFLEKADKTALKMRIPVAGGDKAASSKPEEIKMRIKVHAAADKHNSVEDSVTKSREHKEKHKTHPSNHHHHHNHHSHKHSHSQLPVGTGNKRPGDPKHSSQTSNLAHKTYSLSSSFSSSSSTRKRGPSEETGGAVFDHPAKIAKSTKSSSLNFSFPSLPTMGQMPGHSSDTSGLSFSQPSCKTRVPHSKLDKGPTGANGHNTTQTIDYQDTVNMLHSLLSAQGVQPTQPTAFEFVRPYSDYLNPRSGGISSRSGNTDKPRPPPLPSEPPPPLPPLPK
Chain of ABL1 (P00519 28-1130): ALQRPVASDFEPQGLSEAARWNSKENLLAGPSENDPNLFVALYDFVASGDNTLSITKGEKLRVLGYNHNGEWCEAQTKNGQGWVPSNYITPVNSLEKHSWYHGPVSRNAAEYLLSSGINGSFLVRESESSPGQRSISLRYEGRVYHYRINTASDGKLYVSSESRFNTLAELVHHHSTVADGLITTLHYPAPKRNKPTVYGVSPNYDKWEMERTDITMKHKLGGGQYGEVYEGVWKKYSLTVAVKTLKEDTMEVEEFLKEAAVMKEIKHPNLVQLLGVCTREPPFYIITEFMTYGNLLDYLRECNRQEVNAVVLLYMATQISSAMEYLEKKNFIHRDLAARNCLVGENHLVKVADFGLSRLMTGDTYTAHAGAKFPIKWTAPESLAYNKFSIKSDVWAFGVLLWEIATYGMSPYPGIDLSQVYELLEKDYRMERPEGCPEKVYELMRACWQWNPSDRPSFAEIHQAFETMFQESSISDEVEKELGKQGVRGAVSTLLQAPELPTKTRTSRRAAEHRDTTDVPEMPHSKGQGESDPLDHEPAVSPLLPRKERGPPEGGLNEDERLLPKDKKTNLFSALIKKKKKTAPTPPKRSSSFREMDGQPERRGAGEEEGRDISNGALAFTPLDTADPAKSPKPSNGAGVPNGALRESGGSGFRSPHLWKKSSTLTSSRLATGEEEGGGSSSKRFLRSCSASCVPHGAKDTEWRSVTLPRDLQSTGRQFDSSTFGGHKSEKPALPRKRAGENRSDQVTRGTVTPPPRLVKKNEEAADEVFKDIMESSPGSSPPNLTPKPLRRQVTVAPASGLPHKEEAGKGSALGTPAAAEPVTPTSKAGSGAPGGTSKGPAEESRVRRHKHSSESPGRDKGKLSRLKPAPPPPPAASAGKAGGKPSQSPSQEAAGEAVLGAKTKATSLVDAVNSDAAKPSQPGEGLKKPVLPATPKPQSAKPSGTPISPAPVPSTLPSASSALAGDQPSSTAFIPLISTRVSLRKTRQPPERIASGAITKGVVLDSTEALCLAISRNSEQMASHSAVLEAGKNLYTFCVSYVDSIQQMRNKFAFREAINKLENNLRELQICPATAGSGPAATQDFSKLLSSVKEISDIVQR
Chain of ABL1 (P11274 1-927 partner): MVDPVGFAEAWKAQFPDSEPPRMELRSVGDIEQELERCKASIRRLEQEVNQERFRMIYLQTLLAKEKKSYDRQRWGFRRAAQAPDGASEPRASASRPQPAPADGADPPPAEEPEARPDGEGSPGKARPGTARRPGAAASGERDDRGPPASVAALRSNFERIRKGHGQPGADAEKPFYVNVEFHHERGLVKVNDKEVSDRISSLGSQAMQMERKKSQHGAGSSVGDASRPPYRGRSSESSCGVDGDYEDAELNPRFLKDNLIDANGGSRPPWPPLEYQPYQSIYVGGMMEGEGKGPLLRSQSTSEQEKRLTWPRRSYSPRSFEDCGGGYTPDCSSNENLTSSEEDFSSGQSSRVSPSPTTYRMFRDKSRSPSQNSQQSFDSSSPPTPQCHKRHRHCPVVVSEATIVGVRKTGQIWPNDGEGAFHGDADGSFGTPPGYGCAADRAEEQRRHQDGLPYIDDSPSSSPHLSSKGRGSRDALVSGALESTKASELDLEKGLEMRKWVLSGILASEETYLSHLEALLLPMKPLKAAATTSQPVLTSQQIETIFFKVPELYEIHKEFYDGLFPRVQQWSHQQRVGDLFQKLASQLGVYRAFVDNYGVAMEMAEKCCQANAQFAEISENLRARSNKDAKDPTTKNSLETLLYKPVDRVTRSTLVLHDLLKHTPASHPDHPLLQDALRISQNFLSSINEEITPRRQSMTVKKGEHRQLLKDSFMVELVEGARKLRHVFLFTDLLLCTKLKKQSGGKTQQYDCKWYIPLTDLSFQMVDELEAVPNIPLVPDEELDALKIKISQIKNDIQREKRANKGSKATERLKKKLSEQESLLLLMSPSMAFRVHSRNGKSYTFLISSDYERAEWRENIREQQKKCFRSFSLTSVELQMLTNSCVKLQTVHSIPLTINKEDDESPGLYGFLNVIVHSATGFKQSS

`Cc1ccc(NC(=O)c2ccc(CN3CCN(C)CC3)cc2)cc1Nc1nccc(-c2cccnc2)n1` [Imatinib]: on BRDT, the IC50 was > 10000 nM.
Take `N#CCc1ccc(Nc2nc(NCCCN)cc(Nc3cc(C4CC4)[nH]n3)n2)cc1` [KAM]: the “median Log10 fold change” value was -0.01348 at CDK9 (0.001 uM KAM); -0.02502 at CDK9 (0.01 uM KAM); -0.3345 at CDK9 (0.1 uM KAM); -0.6226 on CDK9 (1 uM KAM); -0.7136 on CDK9 (10 uM KAM); -0.03432 at AAK1 (0.001 uM KAM). Moreover, the “median Log10 fold change” value was -0.41 on AAK1 (0.01 uM KAM); -0.6175 at AAK1 (0.1 uM KAM); -0.6778 on AAK1 (1 uM KAM); -0.7219 on AAK1 (10 uM KAM); 0.002359 at GSK3A (0.001 uM KAM); -0.1849 at GSK3A (0.01 uM KAM). Also, the “median Log10 fold change” value at GSK3A (0.1 uM KAM) was -0.4791; at GSK3A (1 uM KAM), -0.5469; at GSK3A (10 uM KAM) it was -0.4904; at GSK3B (0.001 uM KAM) it was 0.01354; at GSK3B (0.01 uM KAM) it was -0.16; at GSK3B (0.1 uM KAM) it was -0.4584. The “median Log10 fold change” value at GSK3B (1 uM KAM) was -0.606; on GSK3B (10 uM KAM), -0.568; at NEK9 (0.001 uM KAM) it was 0.04943; at NEK9 (0.01 uM KAM), -0.06045; on NEK9 (0.1 uM KAM), -0.3899; on NEK9 (1 uM KAM), -0.6054. In addition, the “median Log10 fold change” value is on record as -0.6016 at NEK9 (10 uM KAM); -0.005017 with ABL1 (0.001 uM KAM); -0.004253 in the experiment on ABL1 (0.01 uM KAM); -0.1612 in the experiment with ABL1 (0.1 uM KAM); -0.353 with ABL1 (1 uM KAM); -0.4826 in the experiment with ABL1 (10 uM KAM). Also, the IC50 amounted to 112 nM on CDK9 (CDK9, KAM-based affinity matrix, K562 lysates, read-out: RB50 (the source's name)); 8 nM on AAK1 (AAK1, KAM-based affinity matrix, K562 lysates, read-out: RB50 (the source's name)); 37 nM at GSK3A (GSK3A, KAM-based affinity matrix, K562 lysates, read-out: RB50 (the source's name)); 45 nM at GSK3B (GSK3B, KAM-based affinity matrix, K562 lysates, read-out: RB50 (the source's name)); 86 nM at NEK9 (NEK9, KAM-based affinity matrix, K562 lysates, read-out: RB50 (the source's name)); 759 nM on ABL1 (ABL1, KAM-based affinity matrix, K562 lysates, read-out: RB50 (the source's name)).
